Measured values from patent US7192981B2, “3,4-dihydroxyhydrocinnamic acid derivative” (Bionutrigen Co., Ltd., priority 2005, dated 2007).

Assays:
IR-β [1] = target: T1, IR-β (Rattus norvegicus, UniProt P15127); assay: Phosphorylation of IR-β in adipocytes, immunoprecipitation and western blot; format: cell-based; settings: SD rat adipocytes, DHH105 2 h, vs untreated control
T1 construct: DHH105-treated adipocytes from SD rats; endogenous in cells; host or cells: adipocytes from SD rats
Experimental: Adipocytes treated with DHH105 for 2 h or insulin for 10 min were homogenized in 5 ml lysis buffer (20 mM Tris, pH 7.4, 1% SDS, 10% glycerol, 150 mM NaCl, 2 mM EDTA, 20 mM NaF, 1 mM NaVO4, 2 mM sodium pyrophosphate, protease inhibitor cocktail, and phosphatase inhibitor cocktail) with a teflon pestle (15 strokes). Homogenized adipocytes were sonicated for 3 min and solubilized for 30 min. The homogenate was centrifuged at 3,000 g for 10 min at 4° C. The protein concentration of the lysate was determined by the Bradford method. After dilution (1 μg/μl protein concentration), the lysates were incubated with anti-insulin receptor-β (IR-β) antibody (Upstate Biotech, Charlottesville, Va.) or anti-IRS-1 antibody (Upstate Biotech) overnight at 4° C. Protein A Sepharose beads (100 μl, Amersham Pharmacia Biotech) were added and the mixture was gently rocked for 2 h at 4° C. […] The membranes were washed and the immunoreactive proteins were detected with an enhanced chemoluminescence western blot detection kit (Amersham Pharmacia Biotech). To examine whether DHH105 treatment increases autophosphorylation of the insulin receptor and its tyrosine kinase activity, the phosphorylation of IR-β and IRS-1 were measured by immunoprecipitation and western blot in DHH105-treated adipocytes from SD rats. […]

IR-β [2] = target: T2, IR-β (Mus musculus, UniProt P15208); assay: Phosphorylation of IR-β in adipose tissue of treated diabetic mice; format: in vivo; settings: 2 weeks of DHH105 treatment
T2 construct: from tissue; host or cells: fat (adipose) tissue of STZ-induced diabetic C57BL/6 mice and ob/ob mice
T2 sequence (P15208 753-1372 limits assumed): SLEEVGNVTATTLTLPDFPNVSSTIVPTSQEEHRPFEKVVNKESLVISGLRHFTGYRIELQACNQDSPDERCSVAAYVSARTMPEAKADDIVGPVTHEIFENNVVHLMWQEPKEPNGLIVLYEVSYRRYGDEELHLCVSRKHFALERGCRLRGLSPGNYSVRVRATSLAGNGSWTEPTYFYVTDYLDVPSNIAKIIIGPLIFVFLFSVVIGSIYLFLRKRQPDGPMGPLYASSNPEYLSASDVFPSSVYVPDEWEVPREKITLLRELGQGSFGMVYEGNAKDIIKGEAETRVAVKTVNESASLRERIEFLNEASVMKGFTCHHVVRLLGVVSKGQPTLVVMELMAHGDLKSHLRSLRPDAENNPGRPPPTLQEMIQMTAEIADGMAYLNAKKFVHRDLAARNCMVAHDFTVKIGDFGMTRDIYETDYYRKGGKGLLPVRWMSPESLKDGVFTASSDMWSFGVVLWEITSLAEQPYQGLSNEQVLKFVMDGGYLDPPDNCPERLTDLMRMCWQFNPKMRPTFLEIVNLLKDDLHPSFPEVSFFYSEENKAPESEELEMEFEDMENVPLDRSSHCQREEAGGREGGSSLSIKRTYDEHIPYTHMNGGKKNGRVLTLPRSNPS
T2 sequence (P15208 28-748 limits assumed): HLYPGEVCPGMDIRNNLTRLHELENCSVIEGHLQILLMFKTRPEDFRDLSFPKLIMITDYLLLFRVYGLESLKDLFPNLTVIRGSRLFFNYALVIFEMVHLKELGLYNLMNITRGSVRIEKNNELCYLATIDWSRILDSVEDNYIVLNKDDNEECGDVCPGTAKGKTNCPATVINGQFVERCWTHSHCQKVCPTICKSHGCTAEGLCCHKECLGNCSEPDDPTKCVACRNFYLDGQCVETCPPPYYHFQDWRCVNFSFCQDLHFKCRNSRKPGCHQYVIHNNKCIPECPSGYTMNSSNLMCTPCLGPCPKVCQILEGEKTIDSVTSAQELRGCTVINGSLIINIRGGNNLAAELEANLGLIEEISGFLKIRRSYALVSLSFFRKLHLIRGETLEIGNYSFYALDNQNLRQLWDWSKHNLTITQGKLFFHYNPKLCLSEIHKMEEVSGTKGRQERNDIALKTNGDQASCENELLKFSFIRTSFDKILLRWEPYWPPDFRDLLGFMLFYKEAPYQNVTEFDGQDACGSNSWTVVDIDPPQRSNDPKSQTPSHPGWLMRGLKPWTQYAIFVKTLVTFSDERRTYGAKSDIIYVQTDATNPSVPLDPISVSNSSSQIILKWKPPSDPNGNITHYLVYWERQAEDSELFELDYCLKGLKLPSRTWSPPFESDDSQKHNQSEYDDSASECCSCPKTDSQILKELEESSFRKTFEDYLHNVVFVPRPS
Experimental: Adipocytes treated with DHH105 for 2 h or insulin for 10 min were homogenized in 5 ml lysis buffer (20 mM Tris, pH 7.4, 1% SDS, 10% glycerol, 150 mM NaCl, 2 mM EDTA, 20 mM NaF, 1 mM NaVO4, 2 mM sodium pyrophosphate, protease inhibitor cocktail, and phosphatase inhibitor cocktail) with a teflon pestle (15 strokes). Homogenized adipocytes were sonicated for 3 min and solubilized for 30 min. The homogenate was centrifuged at 3,000 g for 10 min at 4° C. The protein concentration of the lysate was determined by the Bradford method. After dilution (1 μg/μl protein concentration), the lysates were incubated with anti-insulin receptor-β (IR-β) antibody (Upstate Biotech, Charlottesville, Va.) or anti-IRS-1 antibody (Upstate Biotech) overnight at 4° C. Protein A Sepharose beads (100 μl, Amersham Pharmacia Biotech) were added and the mixture was gently rocked for 2 h at 4° C. […] The membranes were washed and the immunoreactive proteins were detected with an enhanced chemoluminescence western blot detection kit (Amersham Pharmacia Biotech). To examine whether in vivo treatment of STZ-induced diabetic C57BL/6 mice or ob/ob mice with DHH105 also increases phosphorylation of IR-β, and IRS-1, fat tissue was removed from the mice after 2 weeks of DHH105 treatment and phosphorylation of IR-β and IRS-1 was measured by immunoprecipitation and western blot.

T1 sequence (P15127 764-1383 limits assumed): as the sequence (P15208 753-1372 limits assumed) above, with L13P, V21I, V26A, Q30H, D69E, C72S, S73G, A288V, G580C counted along it
T1 sequence (P15127 27-759 limits assumed): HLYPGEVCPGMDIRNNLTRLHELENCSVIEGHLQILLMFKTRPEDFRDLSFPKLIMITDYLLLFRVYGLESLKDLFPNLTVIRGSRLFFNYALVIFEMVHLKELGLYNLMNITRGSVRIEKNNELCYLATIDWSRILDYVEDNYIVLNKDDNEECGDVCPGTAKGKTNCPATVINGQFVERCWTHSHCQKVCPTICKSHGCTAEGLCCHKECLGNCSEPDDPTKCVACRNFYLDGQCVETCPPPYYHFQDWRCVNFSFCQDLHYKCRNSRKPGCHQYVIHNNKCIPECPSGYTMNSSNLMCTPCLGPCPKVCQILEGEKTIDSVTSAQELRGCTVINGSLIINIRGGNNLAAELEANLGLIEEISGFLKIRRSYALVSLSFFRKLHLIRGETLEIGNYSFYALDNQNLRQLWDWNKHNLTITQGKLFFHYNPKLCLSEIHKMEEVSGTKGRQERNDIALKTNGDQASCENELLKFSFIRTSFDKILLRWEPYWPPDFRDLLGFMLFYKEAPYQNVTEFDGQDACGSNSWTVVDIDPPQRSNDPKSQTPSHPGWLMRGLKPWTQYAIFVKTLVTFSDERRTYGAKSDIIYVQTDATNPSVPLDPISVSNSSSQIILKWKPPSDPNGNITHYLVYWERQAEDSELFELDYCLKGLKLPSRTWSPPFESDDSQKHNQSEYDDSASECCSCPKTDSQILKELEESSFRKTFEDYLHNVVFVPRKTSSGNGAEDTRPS

O=C(CCc1ccc(O)c(O)c1)OCc1cccc2ccccc12 [DHH105, 3,4-dihydroxyhydrocinnamic acid naphthalene methyl ester]
increased: phosphorylation of IR-β (IR-β [1]) | phosphorylation of IR-β in adipose tissue (IR-β [2]; STZ-induced diabetic C57BL/6 mice) | phosphorylation of IR-β in adipose tissue (IR-β [2]; ob/ob mice)
